Values quoted from earlier work, collected in patent publication US8481600B2, “Formulation of aspirin that is stable and showing minimal hydrolysis for parenteral administration for the treatment of cardiovascular and other disease states” (Academic Pharmaceuticals, Inc., priority 2007, dated 2013).

Legend:
[1] = cited from earlier work
[2] = cited from earlier work; remark: listed apart in the source
[3] = cited from earlier work; remark: listed apart in the source

CC(=O)Oc1ccccc1C(=O)O [Lysine acetylsalicylate]
shortest half life after IV administration ([1]; IV): 7.5 min | metabolism and hydrolysis to salicylic acid ([1]; in vivo): rapid | treatment of acute migraine headaches ([2]; human, in vivo): effective | incidence of sensitivity that can lead to anaphylactic shock ([2]; patients): up to 5% | water solubility [3]: readily water soluble
